What was measured:
[1] = Liquid, Vibrating tube method
[2] = xn = mol fraction of the nth substance listed; settings: Liquid; for viscosity: Electromagnetically Driven Piston; for mass density: Vibrating tube method

CCCCCCCCCCCCCC [tetradecane]
[1]
Settings | mass density [kg/m3]
294.4 K, 5030 kPa | 764
294.6 K, 8000 kPa | 766
294.6 K, 9490 kPa | 767
294.8 K, 2050 kPa | 760
294.8 K, 3540 kPa | 762
294.8 K, 6500 kPa | 765
324 K, 3540 kPa | 743
324 K, 5050 kPa | 744
324 K, 6560 kPa | 746
324.1 K, 2070 kPa | 742
324.1 K, 8070 kPa | 747
324.1 K, 9540 kPa | 748
373.3 K, 5060 kPa | 711
373.3 K, 6560 kPa | 712
373.5 K, 2100 kPa | 708
373.5 K, 3560 kPa | 709
373.5 K, 8030 kPa | 713
373.5 K, 9500 kPa | 715
447.5 K, 4920 kPa | 660
447.5 K, 6450 kPa | 662
447.6 K, 1990 kPa | 655
447.6 K, 3590 kPa | 658
447.6 K, 7960 kPa | 665
447.6 K, 9470 kPa | 667

CCCCCCCCCCCCCC [tetradecane] + C
[2]
Settings | mass density [kg/m3] | viscosity [mPa·s]
294.4 K, x2 = 0.232 | 740 | 1.48
294.6 K, x2 = 0.331 | 728 | 1.16
294.6 K, x2 = 0.364 | 723 | 1.05
294.8 K, x2 = 0.112 | 752 | 1.74
294.8 K, x2 = 0.176 | 746 | 1.64
294.8 K, x2 = 0.282 | 734 | 1.33
324 K, x2 = 0.159 | 726 | 0.97
324 K, x2 = 0.213 | 722 | 0.91
324 K, x2 = 0.264 | 716 | 0.82
324.1 K, x2 = 0.1 | 732 | 1.07
324.1 K, x2 = 0.306 | 711 | 0.75
324.1 K, x2 = 0.342 | 706 | 0.7
373.3 K, x2 = 0.193 | 689 | 0.51
373.3 K, x2 = 0.239 | 683 | 0.49
373.5 K, x2 = 0.09 | 699 | 0.57
373.5 K, x2 = 0.143 | 694 | 0.54
373.5 K, x2 = 0.279 | 678 | 0.46
373.5 K, x2 = 0.317 | 674 | 0.44
447.5 K, x2 = 0.176 | 636 | 0.28
447.5 K, x2 = 0.223 | 631 | 0.27
447.6 K, x2 = 0.078 | 646 | 0.31
447.6 K, x2 = 0.137 | 640 | 0.29
447.6 K, x2 = 0.266 | 625 | 0.25
447.6 K, x2 = 0.303 | 620 | 0.24

— the NIST ThermoML archive (doi:10.1016/j.fluid.2012.01.023)
